The text below walks through data of patent US5212201A, “Xanthine oxidase inhibitor” (priority 1989, dated 1993).

Where two headings read alike, the source gives them in different places.

For data set [1], the target named is xanthine oxidase (Bos taurus, UniProt P80457). As to the kind of experiment: xanthine oxidase inhibitory activity (absorbance at 290 nm, xanthine substrate). The conditions noted are these: for Relative intensity: relative to 1.00 (XOI-A and allopurinol), from concentration for 50% inhibitory rate; for activity compared with known xanthine oxidase inhibitors allopurinol, luteolin / activity compared with quercetin: as seen from Table 1; for Total activity: purification from Perilla frutescens (3.73 kg fresh weight); for Total activity / Specific activity: 1 U = activity required for inhibiting 50% of xanthine oxidase; for Specific activity: purification from Perilla frutescens. Type of data set: biochemical. On the procedure:
This xanthine oxidase inhibitory activity can be determined, for example, as follows:
Enzyme solution: An enzyme solution is prepared by dissolving 150 μl of xanthine oxidase (15.2 units/ml) in 10 ml of 1/15 M phosphate buffer (pH 7.5).
Substrate solution: A substrate solution is prepared by heating 22.8 mg of xanthine in 1 liter of water to dissolve it.
Determination: 0.1 ml of the enzyme solution and 2.9 ml of phosphate buffer (the same as that described above) are admixed with 1.0 ml of the sample solution and the mixture is incubated at 37° C. for 10 minutes.
Then, 1 ml of the substrate solution preincubated at 37° C. is added to this reaction mixture and, after reaction for 30 minutes, an absorbance at 290 nm (D1) is measured.
Separately, an absorbance at 290 nm (D2) of a reaction mixture obtained by the similar reaction procedure using a heat inactivated enzyme, an absorbance (D3) without addition of the sample solution, and absorbance (D4) of a reaction mixture obtained by using a heat-inactivated enzyme without addition of the sample solution are measured. By using the values obtained by these measurements, the inhibitory rate of xanthine oxidase is calculated by using the following equation:
Inhibitory Rate (%)={1-(D1 -D2)/(D3 -D4 }×100
In Table 2, 1 U represents the activity required for inhibiting 50% of xanthine oxidase.

Data set [2] can be described thus: solubility in solvents. Type of data set: physicochemical.
The mark [3] stands for this setting: xanthine oxidase, pH 7.5, 37° C., reaction for 30 minutes, read-out: Concentration for 50% inhibitory rate (converted).

Chain of xanthine oxidase (P80457 whole entry): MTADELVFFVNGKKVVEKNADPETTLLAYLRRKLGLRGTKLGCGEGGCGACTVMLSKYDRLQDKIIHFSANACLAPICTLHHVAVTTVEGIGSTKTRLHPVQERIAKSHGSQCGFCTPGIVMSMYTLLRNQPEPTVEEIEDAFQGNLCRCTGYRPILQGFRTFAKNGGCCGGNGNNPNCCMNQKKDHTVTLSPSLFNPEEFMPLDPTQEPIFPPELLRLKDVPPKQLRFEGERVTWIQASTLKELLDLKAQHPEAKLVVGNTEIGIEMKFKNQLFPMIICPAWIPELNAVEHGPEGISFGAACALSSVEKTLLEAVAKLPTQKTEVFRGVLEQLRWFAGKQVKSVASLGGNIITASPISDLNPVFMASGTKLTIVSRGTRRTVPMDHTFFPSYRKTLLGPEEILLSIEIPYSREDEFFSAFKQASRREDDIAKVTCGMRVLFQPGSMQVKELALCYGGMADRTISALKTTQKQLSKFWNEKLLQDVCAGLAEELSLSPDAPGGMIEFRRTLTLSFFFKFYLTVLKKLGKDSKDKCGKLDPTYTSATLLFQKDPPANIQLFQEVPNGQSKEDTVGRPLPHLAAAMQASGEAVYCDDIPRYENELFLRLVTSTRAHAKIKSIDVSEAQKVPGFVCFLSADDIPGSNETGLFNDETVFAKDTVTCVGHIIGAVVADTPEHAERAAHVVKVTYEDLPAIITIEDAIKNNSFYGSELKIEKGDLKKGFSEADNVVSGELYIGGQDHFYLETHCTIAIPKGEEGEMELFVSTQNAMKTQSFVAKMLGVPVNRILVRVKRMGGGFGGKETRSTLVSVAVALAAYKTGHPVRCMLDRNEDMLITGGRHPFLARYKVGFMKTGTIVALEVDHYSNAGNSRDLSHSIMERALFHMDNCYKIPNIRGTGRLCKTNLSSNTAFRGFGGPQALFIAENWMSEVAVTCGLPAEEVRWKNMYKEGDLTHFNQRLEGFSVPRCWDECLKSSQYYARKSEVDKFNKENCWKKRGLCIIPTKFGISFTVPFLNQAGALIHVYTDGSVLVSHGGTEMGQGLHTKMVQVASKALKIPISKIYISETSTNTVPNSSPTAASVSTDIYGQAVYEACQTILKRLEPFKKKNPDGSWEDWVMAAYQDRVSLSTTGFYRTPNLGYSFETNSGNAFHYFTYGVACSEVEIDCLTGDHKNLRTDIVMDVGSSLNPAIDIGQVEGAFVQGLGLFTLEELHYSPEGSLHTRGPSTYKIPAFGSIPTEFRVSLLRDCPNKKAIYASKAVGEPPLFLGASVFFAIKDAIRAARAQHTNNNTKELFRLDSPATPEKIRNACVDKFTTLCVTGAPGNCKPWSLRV

Regarding `O=c1cc(-c2ccc(O)c(O)c2)oc2cc(O)cc(O)c12` [Luteolin, luteolin, reference compound], in data set [1], the IC50 is 384 nM and the Relative intensity turned out to be 0.19.

Turning to `O=C(/C=C/c1ccc(O)c(O)c1)O/C=C\c1ccc(O)c(O)c1` [XOI-A, (Z,E)-2-(3,4-dihydroxyphenyl)ethenylester of 3-(3,4-dihydroxyphenyl)-2-propenoic acid], in data set [1], the “activity compared with known xanthine oxidase inhibitors allopurinol, luteolin” value is given as “comparable to that of allopurinol”; the “activity compared with quercetin” value is on record as “superior to that of quercetin”; the Total activity was 1.96 × 10^6 (U); the Specific activity was 46600 μ/mg. Besides, the “Specific activity, figure in parentheses (relative to ethanol extract = 1)” value in data set [1] (purification step) came out at 222. Further, the “Total activity, figure in parentheses (relative to ethanol extract = 100)” value in data set [1] (purification step, ethanol extract = 100) was determined as 6. Further, the IC50 in data set [1] (setting [3]) was 66.8 nM. In addition, in data set [2], the “solubility in methanol, propanol, acetone, ethyl acetate or acetonitrile” value is listed as “readily soluble” and the “solubility in water, chloroform or hexane” value is “slightly soluble”.

Consider `O=C(/C=C/c1ccc(O)c(O)c1)O/C=C\c1cc(O)cc(O)c1` [XOI-B, (Z,E)-2-(3,5-dihydroxyphenyl)ethenylester of 3-(3,4-dihydroxyphenyl)-2-propenoic acid], for which, in data set [1], the “activity compared with known xanthine oxidase inhibitors allopurinol, luteolin” value was “almost the same as that of luteolin”; the “activity compared with quercetin” value was “superior to that of quercetin”; the Total activity was 0.09 × 10^6 (U); the Specific activity is on record as 8040 μ/mg. The Relative intensity in data set [1] is 0.17. Besides, in data set [1] (purification step), the “Specific activity, figure in parentheses (relative to ethanol extract = 1)” value came to 38. Besides, in data set [1] (setting [3]), the IC50 was 395 nM. In data set [2], the “solubility in methanol, propanol, acetone, ethyl acetate or acetonitrile” value was “readily soluble” and the “solubility in water, chloroform or hexane” value was “slightly soluble”.
